Read-outs that look alike come from different tables or passages of the source.
Target: T1, SFRP-1 (Homo sapiens, UniProt Q8N474)
T1 sequence (Q8N474 32-314): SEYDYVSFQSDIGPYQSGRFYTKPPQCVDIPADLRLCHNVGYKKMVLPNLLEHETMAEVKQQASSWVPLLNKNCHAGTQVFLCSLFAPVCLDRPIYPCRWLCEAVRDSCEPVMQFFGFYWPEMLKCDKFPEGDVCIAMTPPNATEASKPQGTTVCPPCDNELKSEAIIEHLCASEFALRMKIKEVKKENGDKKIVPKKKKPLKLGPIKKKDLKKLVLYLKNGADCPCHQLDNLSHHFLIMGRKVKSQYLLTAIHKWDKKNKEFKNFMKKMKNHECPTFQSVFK
Test: Cell-based assay for in vitro measurement of SFRP-1/SARP2 antagonist activity (U2OS cells co-transfected with 16x TCF-tk-Luciferase reporter, Wnt and hSFRP-1);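 also: U2OS cells co-transfected with a TCF-tk luciferase reporter, a Wnt vector, hSFRP-1 or empty vector and CMV-βgal, luciferase luminescence read in cell lysates alongside βgal activity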
Details: for fold induction at 20 µM / fold induction at 10 µM / fold induction at 15 µM / fold induction at 30 µM: U2OS; for fold induction at 10 µM: read-out: Fold Induction with SFRP-1, U2OS cells, single dose 10 μM, luciferase reporter, fold induction over SFRP-1 control

[1] = read-out: Fold Induction with SFRP-1, Conc 15 μM, with SFRP-1, fold induction over SFRP-1 control, single dose
[2] = read-out: Fold Induction without SFRP-1, Conc 15 μM, without SFRP-1, single dose
[3] = read-out: Fold Induction with SFRP-1, Conc 30 μM, with SFRP-1, fold induction over SFRP-1 control, single dose
[4] = read-out: Fold Induction without SFRP-1, Conc 30 μM, without SFRP-1, single dose

SMILES	fold induction at 15 µM [1]	fold induction at 15 µM [2]	also measured
Cc1ccc(S(=O)(=O)c2ccccc2)cc1S(=O)(=O)NC[C@H](C)c1ccccc1 [Example 248, 2-methyl-N-[(2R)-2-phenylpropyl]-5-(phenylsulfonyl)benzenesulfonamide]			fold induction at 20 µM (read-out: Fold Induction with SFRP-1, Conc 20 μM, with SFRP-1, fold induction over SFRP-1 control, single dose): 2.8; fold induction at 20 µM (read-out: Fold Induction without SFRP-1, Conc 20 μM, without SFRP-1, single dose): 0.9
CC(C)c1ccc(S(=O)(=O)c2ccc(F)cc2)cc1S(=O)(=O)NC(CO)C(C)C (stereo not drawn) [Example 734, 5-[(4-fluorophenyl)sulfonyl]-N-[1-(hydroxymethyl)-2-methylpropyl]-2-isopropylbenzenesulfonamide]			fold induction at 10 µM: 1.6
COCCCNS(=O)(=O)c1cc(S(=O)(=O)c2ccccc2)ccc1C [Example 215, N-(3-methoxypropyl)-2-methyl-5-(phenylsulfonyl)benzenesulfonamide]	2.9	1	
Cc1cc(C)c(S(=O)(=O)c2ccc(F)cc2)cc1S(=O)(=O)NCCCn1ccnc1 [Example 330, 5-[(4-fluorophenyl)sulfonyl]-N-[3-(1H-imidazol-1-yl)propyl]-2,4-dimethylbenzenesulfonamide]	3.2	1.1	
O=S(=O)(c1ccccc1)c1ccc(Cl)c(S(=O)(=O)N2CCN(CCN3CCOCC3)CC2)c1 [Example 636, 4-[2-(4-{[2-chloro-5-(phenylsulfonyl)phenyl]sulfonyl}piperazin-1-yl)ethyl]morpholine]			fold induction at 15 µM (read-out: Fold Induction with SFRP-1, Conc 15 μM, single dose, luciferase reporter, fold induction over SFRP-1 control, cells with SFRP-1): 1.7; fold induction at 15 µM (read-out: Fold Induction without SFRP-1, Conc 15 μM, single dose, luciferase reporter, cells without SFRP-1 (specificity control)): 1.1
Cc1ccc(S(=O)(=O)c2ccccc2)cc1S(=O)(=O)NCCCN1CCCC1 [Example 220, 2-methyl-5-(phenylsulfonyl)-N-(3-pyrrolidin-1-ylpropyl)benzenesulfonamide]	3.6	1.8	
COc1ccc(S(=O)(=O)c2ccccc2)cc1S(=O)(=O)NCCc1ccc(S(N)(=O)=O)cc1 [Example 154, N-{2-[4-(aminosulfonyl)phenyl]ethyl}-2-methoxy-5-(phenylsulfonyl)benzenesulfonamide]	1.4	1.3	
COc1cccc(CCNS(=O)(=O)c2cc(S(=O)(=O)c3ccc(C)cc3)ccc2C)c1 [Example 119, N-[2-(3-methoxyphenyl)ethyl]-2-methyl-5-[(4-methylphenyl)sulfonyl]benzenesulfonamide]			fold induction at 30 µM [3]: 0.2; fold induction at 30 µM [4]: 0.3
Cc1ccc([S+]([O-])c2ccccc2)cc1S(=O)(=O)NCCCn1ccnc1 (stereo not drawn) [Example 346, N-[3-(1H-imidazol-1-yl)propyl]-2-methyl-5-(phenylsulfinyl)benzenesulfonamide]	2.4	1.3	
CC(C)c1ccc(S(=O)(=O)c2ccc(F)cc2)cc1S(=O)(=O)NC1CCN(C(=S)Nc2ccc(C(F)(F)F)cc2)CC1 [Example 730, 4-[({5-[(4-fluorophenyl)sulfonyl]-2-isopropylphenyl}sulfonyl)amino]-N-[4-(trifluoromethyl)phenyl]piperidine-1-carbothioamide]			fold induction at 10 µM: 2.2
Cc1cc(C)c(S(=O)(=O)c2ccc(F)cc2)cc1S(=O)(=O)NCCc1ccccn1 [Example 331, 5-[(4-fluorophenyl)sulfonyl]-2,4-dimethyl-N-(2-pyridin-2-ylethyl)benzenesulfonamide]	2.3	1.1	
Cc1c(S(=O)(=O)NCCc2ccccc2)cccc1S(=O)(=O)c1ccccc1 [Example 302, 2-methyl-N-(2-phenylethyl)-3-(phenylsulfonyl)benzenesulfonamide]	1.2	1.2	
O=S(=O)(NCCN1CCCCC1)c1cccc(S(=O)(=O)c2ccccc2)c1 [Example 188, 3-(phenylsulfonyl)-N-(2-piperidin-1-ylethyl)benzenesulfonamide]			fold induction at 30 µM [3]: 1.4; fold induction at 30 µM [4]: 1.4
Cc1ccc(S(=O)(=O)c2ccccc2)cc1S(=O)(=O)NC(C)C(O)c1ccccc1 (stereo not drawn) [Example 390, trans-N-(2-hydroxy-1-methyl-2-phenylethyl)-2-methyl-5-(phenylsulfonyl)benzenesulfonamide]			Fold Induction with SFRP-1 (Conc 15 μM, with SFRP-1, fold induction over SFRP-1 control, single dose): 2.2 fold; Fold Induction without SFRP-1 (Conc 15 μM, without SFRP-1, single dose): 1.1 fold
COc1ccccc1CCNS(=O)(=O)c1cc(S(=O)(=O)c2ccccc2)ccc1C [Example 32, N-[2-(2-methoxyphenyl)ethyl]-2-methyl-5-(phenylsulfonyl)benzenesulfonamide]			fold induction at 30 µM [3]: 0.5; fold induction at 30 µM [4]: 0.5
Cc1ccc(S(=O)(=O)c2ccc(C)c(S(=O)(=O)NCCc3ccccc3Cl)c2)cc1 [Example 117, N-[2-(2-chlorophenyl)ethyl]-2-methyl-5-[(4-methylphenyl)sulfonyl]benzenesulfonamide]			fold induction at 30 µM [3]: 1; fold induction at 30 µM [4]: 0.5
Cc1ccc(S(=O)(=O)c2ccc(N3CCCC3)cc2)cc1S(=O)(=O)NCCCn1ccnc1 [Example 305, N-[3-(1H-imidazol-1-yl)propyl]-2-methyl-5-[(4-pyrrolidin-1-ylphenyl)sulfonyl]benzenesulfonamide]	1.8	1	
Cc1cc(C)c(S(=O)(=O)c2ccc(F)cc2)cc1S(=O)(=O)NCCC1CCOCC1 [Example 333, 5-[(4-fluorophenyl)sulfonyl]-2,4-dimethyl-N-[2-(tetrahydro-2H-pyran-4-yl)ethyl]benzenesulfonamide]	1.7	1	
COc1ccc(C(=O)NCCNS(=O)(=O)c2cc(S(=O)(=O)c3ccccc3)ccc2C(F)(F)F)cc1 [Example 780, 4-Methoxy-N-[2-({[5-(phenylsulfonyl)-2-(trifluoromethyl)phenyl]sulfonyl}amino)ethyl]benzamide]			fold induction at 10 µM: 1.7
COCCCNS(=O)(=O)c1cc(S(=O)(=O)c2ccccc2)ccc1OC [Example 238, 2-methoxy-N-(3-methoxypropyl)-5-(phenylsulfonyl)benzenesulfonamide]	1.3	0.9	
CC(=O)NCCNS(=O)(=O)c1cccc(S(=O)(=O)c2ccccc2)c1 [Example 190, N-[2-({[3-(phenylsulfonyl)phenyl]sulfonyl}amino)ethyl]acetamide]			fold induction at 30 µM [3]: 1.2; fold induction at 30 µM [4]: 1
Cc1ccc(S(=O)(=O)c2ccc(F)cc2)cc1S(=O)(=O)NCCCN(C)C [Example 174, N-[3-(dimethylamino)propyl]-5-[(4-fluorophenyl)sulfonyl]-2-methylbenzenesulfonamide]	2.8	1.2	
CN(C)CCNS(=O)(=O)c1cccc(S(=O)(=O)c2ccccc2)c1 [Example 194, N-[2-(dimethylamino)ethyl]-3-(phenylsulfonyl)benzenesulfonamide]			fold induction at 30 µM [3]: 1.3; fold induction at 30 µM [4]: 1.2
Cc1ccc(S(=O)(=O)c2ccccc2)cc1S(=O)(=O)NCCCN1CCN(C)CC1 [Example 221, 2-methyl-N-[3-(4-methylpiperazin-1-yl)propyl]-5-(phenylsulfonyl)benzenesulfonamide]	3	1.2	

Further lines, with some results ahead:

fold induction at 15 µM [1]	fold induction at 15 µM [2]	SMILES	also measured
2.1	0.9	Cc1ccc(S(=O)(=O)c2ccc(F)cc2)cc1S(=O)(=O)NCC1CCOCC1 [Example 383, 5-[(4-fluorophenyl)sulfonyl]-2-methyl-N-(tetrahydro-2H-pyran-4-ylmethyl)benzenesulfonamide]	
1.8	1	Cc1ccc(S(=O)(=O)c2cc(F)cc(F)c2)cc1S(=O)(=O)NCCc1ccccn1 [Example 417, 5-[(3,5-difluorophenyl)sulfonyl]-2-methyl-N-(2-pyridin-2-ylethyl)benzenesulfonamide]	
1.5	1.3	Cc1cc(S(=O)(=O)c2ccccc2)cc(S(=O)(=O)NCCC2CCOCC2)c1C [Example 351, 2,3-dimethyl-5-(phenylsulfonyl)-N-[2-(tetrahydro-2H-pyran-4-yl)ethyl]benzenesulfonamide]	
1.3	1.1	COC(=O)[C@@H](Cc1ccccc1)NS(=O)(=O)c1cc(S(=O)(=O)c2ccccc2)ccc1C [Example 365, methyl N-{[2-methyl-5-(phenylsulfonyl)phenyl]sulfonyl}-D-phenylalaninate]	
2.2	0.9	Cc1ccc(S(=O)(=O)c2ccc(NCCCOC(C)C)cc2)cc1S(=O)(=O)NCCCn1ccnc1 [Example 367, N-[3-(1H-imidazol-1-yl)propyl]-5-({4-[(3-isopropoxypropyl)amino]phenyl}sulfonyl)-2-methylbenzenesulfonamide]	
2.4	1.1	Cc1ccc(S(=O)(=O)c2cccs2)cc1S(=O)(=O)NCCCn1ccnc1 [Example 362, N-[3-(1H-imidazol-1-yl)propyl]-2-methyl-5-(2-thienylsulfonyl)benzenesulfonamide]	
